Assay: xn = mol fraction of the nth substance listed
Conditions: Liquid, Vibrating tube method

CCCCCCCCCC [decane] + CCCCCCC
Conditions | mass density [kg/m3]
333.12 K, 4000 kPa, x2 = 0.0531 | 701.18
333.12 K, 4000 kPa, x2 = 0.777 | 668.42
333.12 K, 5000 kPa, x2 = 0.0531 | 702.16
333.12 K, 5000 kPa, x2 = 0.777 | 669.49
333.12 K, 6000 kPa, x2 = 0.0531 | 703.1
333.12 K, 6000 kPa, x2 = 0.777 | 670.55
333.12 K, 7000 kPa, x2 = 0.0531 | 704.05
333.12 K, 7000 kPa, x2 = 0.777 | 671.62
333.12 K, 8000 kPa, x2 = 0.0531 | 704.99
333.12 K, 8000 kPa, x2 = 0.777 | 672.68
333.12 K, 9000 kPa, x2 = 0.0531 | 705.9
333.12 K, 9000 kPa, x2 = 0.777 | 673.73
333.12 K, 10000 kPa, x2 = 0.0531 | 706.8
333.12 K, 10000 kPa, x2 = 0.777 | 674.77
333.12 K, 10990 kPa, x2 = 0.0531 | 707.69
333.12 K, 10990 kPa, x2 = 0.777 | 675.8
333.12 K, 12000 kPa, x2 = 0.0531 | 708.56
333.12 K, 12000 kPa, x2 = 0.777 | 676.81
333.12 K, 13000 kPa, x2 = 0.0531 | 709.43
333.12 K, 13000 kPa, x2 = 0.777 | 677.81
333.12 K, 14000 kPa, x2 = 0.0531 | 710.28
333.12 K, 14000 kPa, x2 = 0.777 | 678.79
333.12 K, 15000 kPa, x2 = 0.0531 | 711.14
333.12 K, 15000 kPa, x2 = 0.777 | 679.76
333.12 K, 16000 kPa, x2 = 0.0531 | 711.96
333.12 K, 16000 kPa, x2 = 0.777 | 680.71
333.12 K, 17000 kPa, x2 = 0.0531 | 712.79
333.12 K, 17000 kPa, x2 = 0.777 | 681.65
333.12 K, 18000 kPa, x2 = 0.0531 | 713.6
333.12 K, 18000 kPa, x2 = 0.777 | 682.58
333.12 K, 19000 kPa, x2 = 0.0531 | 714.39
333.12 K, 19000 kPa, x2 = 0.777 | 683.49
333.12 K, 20000 kPa, x2 = 0.0531 | 715.18
333.12 K, 20000 kPa, x2 = 0.777 | 684.39
333.12 K, 21000 kPa, x2 = 0.0531 | 715.96
333.12 K, 21000 kPa, x2 = 0.777 | 685.27
333.12 K, 22000 kPa, x2 = 0.0531 | 716.72
333.12 K, 22000 kPa, x2 = 0.777 | 686.1
333.12 K, 23000 kPa, x2 = 0.0531 | 717.46
333.12 K, 23000 kPa, x2 = 0.777 | 686.9
333.12 K, 24000 kPa, x2 = 0.0531 | 718.21
333.12 K, 24000 kPa, x2 = 0.777 | 687.68
333.12 K, 25000 kPa, x2 = 0.0531 | 718.95
333.12 K, 25000 kPa, x2 = 0.777 | 688.47
333.13 K, 1000 kPa, x2 = 0.952 | 653.95
333.13 K, 2000 kPa, x2 = 0.952 | 655.14
333.13 K, 3000 kPa, x2 = 0.952 | 656.33
333.13 K, 4000 kPa, x2 = 0.952 | 657.51
333.13 K, 5000 kPa, x2 = 0.952 | 658.67
333.13 K, 6000 kPa, x2 = 0.952 | 659.82
333.13 K, 7000 kPa, x2 = 0.952 | 660.95
333.13 K, 8000 kPa, x2 = 0.952 | 662.06
333.13 K, 9000 kPa, x2 = 0.952 | 663.16
333.13 K, 10000 kPa, x2 = 0.952 | 664.24
333.13 K, 10990 kPa, x2 = 0.952 | 665.3
333.13 K, 12000 kPa, x2 = 0.952 | 666.34
333.13 K, 13000 kPa, x2 = 0.952 | 667.37
333.13 K, 14000 kPa, x2 = 0.952 | 668.38
333.13 K, 15000 kPa, x2 = 0.952 | 669.39
333.13 K, 16000 kPa, x2 = 0.952 | 670.37
333.13 K, 17000 kPa, x2 = 0.952 | 671.33
333.13 K, 18000 kPa, x2 = 0.952 | 672.29
333.13 K, 19000 kPa, x2 = 0.952 | 673.23
333.13 K, 20000 kPa, x2 = 0.952 | 674.14
333.13 K, 21000 kPa, x2 = 0.952 | 675.04
333.13 K, 22000 kPa, x2 = 0.952 | 675.93
333.13 K, 23000 kPa, x2 = 0.952 | 676.79
333.13 K, 24000 kPa, x2 = 0.952 | 677.64
333.13 K, 25000 kPa, x2 = 0.952 | 678.45
333.14 K, 1000 kPa, x2 = 0.2594 | 690.74
333.14 K, 2000 kPa, x2 = 0.2594 | 691.66
333.14 K, 3000 kPa, x2 = 0.2594 | 692.62
333.14 K, 4000 kPa, x2 = 0.2594 | 693.57
333.14 K, 5000 kPa, x2 = 0.2594 | 694.49
333.14 K, 6000 kPa, x2 = 0.2594 | 695.43
333.14 K, 7000 kPa, x2 = 0.2594 | 696.4
333.14 K, 8000 kPa, x2 = 0.2594 | 697.34
333.14 K, 9000 kPa, x2 = 0.2594 | 698.3
333.14 K, 10000 kPa, x2 = 0.2594 | 699.23
333.14 K, 10990 kPa, x2 = 0.2594 | 700.16
333.14 K, 12000 kPa, x2 = 0.2594 | 701.08
333.14 K, 13000 kPa, x2 = 0.2594 | 701.98
333.14 K, 14000 kPa, x2 = 0.2594 | 702.87
333.14 K, 15000 kPa, x2 = 0.2594 | 703.75
333.14 K, 16000 kPa, x2 = 0.2594 | 704.61
333.14 K, 17000 kPa, x2 = 0.2594 | 705.47
333.14 K, 18000 kPa, x2 = 0.2594 | 706.33
333.14 K, 19000 kPa, x2 = 0.2594 | 707.13
333.14 K, 20000 kPa, x2 = 0.2594 | 707.94
333.14 K, 21000 kPa, x2 = 0.2594 | 708.75
333.14 K, 22000 kPa, x2 = 0.2594 | 709.53
333.14 K, 23000 kPa, x2 = 0.2594 | 710.3
333.14 K, 24000 kPa, x2 = 0.2594 | 711.03
333.14 K, 25000 kPa, x2 = 0.2594 | 711.74
